Test: Solubility assessment in water (aqueous solubility)
Type: physicochemical
Settings: thermodynamic from solid
Description: Solubility assessment: A preweighed amount of powder of a salt was treated with water to target a nominal concentration of 50 mg/mL. If a clear solution was obtained, then the solubility was noted as ≧50 mg/mL. If a suspension was obtained, it was sonicated for 1 min, followed by vortex mixing for 30 sec, and centrifuged for 5 min. The mother liquor was siphoned off and assayed for content against a standard of the free base by HPLC.

SMILES	solubility at 1.5 min (Free base) [µg/mL]	solubility at 1.5 min (HBr salt) [µg/mL]	solubility at 1.5 min (HCl salt) [µg/mL]	solubility at 1.5 min (Mesylate salt) [µg/mL]	solubility at 1.5 min (Phosphate salt) [µg/mL]	solubility at 1.5 min (Sulfate salt) [µg/mL]	solubility at 1.5 min (Tartrate salt) [µg/mL]	solubility at 1.5 min (Camsylate salt) [µg/mL]	solubility at 1.5 min (Tosylate salt) [µg/mL]	solubility at 1.5 min (Citrate salt) [µg/mL]
CN1CCN(S(=O)(=O)c2cc(C#N)ccc2Sc2cc(Cl)cc(Cl)c2)CC1 [Cmpd 1, 4-(3,5-dichlorophenylthio)-3-(4-methylpiperazin-1-ylsulfonyl)benzonitrile]	< 10	400	1360	7260	1700	790	450			
CCN1CCN(S(=O)(=O)c2cc(C#N)ccc2Oc2cc(C)cc(C)c2)CC1 [Cmpd 3, 4-(3,5-dimethylphenoxy)-3-(4-ethylpiperazin-1-ylsulfonyl)benzonitrile]	< 10	30	330	200				80		
CC(C)N1CCN(S(=O)(=O)c2cc(C#N)ccc2Sc2cc(Cl)cc(Cl)c2)CC1 [Cmpd 4, 4-(3,5-dichlorophenylthio)-3-(4-isopropylpiperazin-1-ylsulfonyl)benzonitrile]	< 10	200	800	23000		1100		240		
N#Cc1ccc(Sc2cc(Cl)cc(Cl)c2)c(S(=O)(=O)N2CCN(C3CCCC3)CC2)c1 [Cmpd 5, 3-(4-cyclopentylpiperazin-1-ylsulfonyl)-4-(3,5-dichlorophenylthio)-benzonitrile]	< 10		110	230	10000	1200				

Other lines, results leading:

solubility at 1.5 min (Free base) [µg/mL]	solubility at 1.5 min (HBr salt) [µg/mL]	solubility at 1.5 min (HCl salt) [µg/mL]	solubility at 1.5 min (Mesylate salt) [µg/mL]	solubility at 1.5 min (Phosphate salt) [µg/mL]	solubility at 1.5 min (Sulfate salt) [µg/mL]	solubility at 1.5 min (Tartrate salt) [µg/mL]	solubility at 1.5 min (Camsylate salt) [µg/mL]	solubility at 1.5 min (Tosylate salt) [µg/mL]	solubility at 1.5 min (Citrate salt) [µg/mL]	SMILES
< 10			270	120	230					CCN1CCN(S(=O)(=O)c2cc(C#N)ccc2Oc2cc(Cl)cc(Cl)c2)CC1 [Cmpd 2, 4-(3,5-dichlorophenoxy)-3-(4-ethylpiperazin-1-ylsulfonyl)benzonitrile]
< 10	1000	1590	10000	1660	600		250	300		CCN1CCN(S(=O)(=O)c2cc([N+](=O)[O-])ccc2Oc2cc(Cl)cc(Cl)c2)CC1 [Cmpd 6, 1-(2-(3,5-dichlorophenoxy)-5-nitrophenylsulfonyl)-4-ethylpiperazine]
< 10		3670	3810	2910	2350				800	N#Cc1ccc(Oc2cc(Cl)cc(Cl)c2)c(S(=O)(=O)N2CCC(NC(=O)NCCN3CCOCC3)CC2)c1 [Cmpd 7, 1-(1-(5-cyano-2-(3,5-dichlorophenoxy)phenylsulfonyl)piperidin-4-yl)-3-(2-morpholinoethyl)urea]
< 10		1400	10900	2400	580					CN1CCN(CCNC(=O)NC2CCN(S(=O)(=O)c3cc(C#N)ccc3Oc3cc(Cl)cc(Cl)c3)CC2)CC1 [Cmpd 8, 1-(1-(5-cyano-2-(3,5-dichlorophenoxy)phenylsulfonyl)piperidin-4-yl)-3-(2-(4-methylpiperazin-1-yl)ethyl)urea]
